Measured values as given in ChEMBL document CHEMBL1136922, “Antitumor agents. 266. Design, synthesis, and biological evaluation of novel 2-(furan-2-yl)naphthalen-1-ol derivatives as potent and selective antibreast cancer agents” (2009).
≈ marks a conversion by molar mass, not a printed value.

What was measured:
Type in all cases: functional
MCF7 = assay: Cytotoxicity against human MCF7 cells expressing estrogen receptor after 72 hrs by SRB assay; conditions: MCF7, 72 h, read-out: ED50 (the source's name)
SK-BR-3 = assay: Cytotoxicity against estrogen receptor deficient human SKBR3 cells overexpressing human epidermal growth factor receptor 2 after 72 hrs by SRB assay; conditions: SK-BR-3, 72 h, read-out: ED50 (the source's name)
ZR-75-1 [1] = assay: Cytotoxicity against human ZR-75-1 cells expressing estrogen receptor and HER2 after 72 hrs by SRB assay; conditions: ZR-75-1, 72 h, read-out: ED50 (the source's name)
MDA-MB-231 = assay: Cytotoxicity against estrogen receptor deficient human MDA-MB-231 cells after 72 hrs by SRB assay; conditions: MDA-MB-231, 72 h, read-out: ED50 (the source's name)
A549 = assay: Cytotoxicity against human A549 cells after 72 hrs by SRB assay; conditions: A549, 72 h, read-out: ED50 (the source's name)
DU-145 = assay: Cytotoxicity against human DU145 cells after 72 hrs by SRB assay; conditions: DU-145, 72 h, read-out: ED50 (the source's name)
KB = assay: Cytotoxicity against human KB cells after 72 hrs by SRB assay; conditions: read-out: ED50 (the source's name)
[2] = Cytotoxicity against vincristine-resistant human KBVIN cells after 72 hrs by SRB assay; conditions: read-out: ED50 (the source's name)
ZR-75-1 [3] = assay: Selectivity ratio of ED50 for human MCF7 cells expressing estrogen receptor to ED50 for human ZR-75-1 cells expressing estrogen receptor and HER2
ZR-75-1 [4] = assay: Selectivity ratio of ED50 for estrogen receptor deficient human SKBR3 cells overexpressing HER2 to ED50 for human ZR-75-1 cells expressing estrogen receptor and HER2

Row | SMILES | EC50 (MCF7) [µg/mL] | EC50 (SK-BR-3) [µg/mL] | EC50 (ZR-75-1 [1]) [µg/mL] | EC50 (MDA-MB-231) [µg/mL] | EC50 (A549) [µg/mL] | EC50 (DU-145) [µg/mL] | EC50 (KB) [µg/mL] | EC50 [2] [µg/mL] | Ratio ED50 (ZR-75-1 [3]) | Ratio ED50 (ZR-75-1 [4])
1 | CCc1cccc2c1ccc1c3occ(C)c3c(=O)oc21 | 0.2 (≈ 0.719 µM) | 0.1 (≈ 0.359 µM) | 0.1 (≈ 0.359 µM) | > 10 | 10.6 (≈ 38.1 µM) | 15.9 (≈ 57.1 µM) | 13.1 (≈ 47.1 µM) | 13.2 (≈ 47.4 µM) | 2 | 
2 | Cc1coc2c1c(=O)oc1c3ccccc3ccc21 | 4 (≈ 16 µM) | 1 (≈ 4 µM) |  |  |  |  |  |  |  | 
3 | CCOc1cccc2c(O)c(-c3occ(C)c3C(=O)O)ccc12 | 7.5 (≈ 24 µM) | 6 (≈ 19.2 µM) |  |  |  |  |  |  |  | 
4 | Cc1cccc2c(OC(=O)c3ccoc3)cccc12 | > 20 | > 20 |  |  |  |  |  |  |  | 
5 | Cc1coc2c1c(=O)oc1cc(OC(C)C)ccc12 | 12 (≈ 46.5 µM) | 10.8 (≈ 41.8 µM) |  |  |  |  |  |  |  | 
6 | C#CCOc1cc(=O)oc2c1ccc1ccccc12 | 20 (≈ 79.9 µM) | 16 (≈ 63.9 µM) |  |  |  |  |  |  |  | 
7 | COC(=O)c1c(C)coc1-c1ccc2ccccc2c1OC | 8.5 (≈ 28.7 µM) | 6.5 (≈ 21.9 µM) |  |  |  |  |  |  |  | 
8 | COc1cccc2c(O)c(-c3occ(C)c3C(=O)O)ccc12 | > 20 | 3.5 (≈ 11.7 µM) | 0.6 (≈ 2.01 µM) | > 10 | 10.1 (≈ 33.9 µM) | 8.2 (≈ 27.5 µM) | 9.7 (≈ 32.5 µM) | 8.9 (≈ 29.8 µM) | 33 | 6
9 | COc1c(-c2occ(C)c2C(=O)O)ccc2ccccc12 | 18 (≈ 63.8 µM) | 16.7 (≈ 59.2 µM) |  |  |  |  |  |  |  | 
10 | CCc1cccc2c(O)c(-c3occ(C)c3C(=O)O)ccc12 | 3.3 (≈ 11.1 µM) | 1 (≈ 3.37 µM) | 0.3 (≈ 1.01 µM) | > 10 | 10.6 (≈ 35.8 µM) | 8.7 (≈ 29.4 µM) | 9.1 (≈ 30.7 µM) | 7 (≈ 23.6 µM) | 10 | 3
11 | CCc1cccc2c(OC)c(-c3occ(C)c3C(=O)O)ccc12 | 4.3 (≈ 13.9 µM) | 8.5 (≈ 27.4 µM) |  |  |  |  |  |  |  | 
12 | CCc1cccc2c(O)c(-c3occ(C)c3CO)ccc12 | 12 (≈ 42.5 µM) | 12.8 (≈ 45.3 µM) |  |  |  |  |  |  |  | 
13 | CCc1cccc2c(O)c(-c3oc(C)c(C)c3C(=O)O)ccc12 | 8.5 (≈ 27.4 µM) | 10.4 (≈ 33.5 µM) |  |  |  |  |  |  |  | 
14 | CCc1coc(-c2ccc3c(CC)cccc3c2O)c1C(=O)O | 5.1 (≈ 16.4 µM) | 5.4 (≈ 17.4 µM) |  |  |  |  |  |  |  | 
15 | Cc1coc(-c2ccc3ccccc3c2O)c1CO | 7 (≈ 27.5 µM) | 9.5 (≈ 37.4 µM) |  |  |  |  |  |  |  | 
16 | Cc1coc(-c2ccc3ccccc3c2O)c1C(=O)O | 6 (≈ 22.4 µM) | 7 (≈ 26.1 µM) |  |  |  |  |  |  |  | 
17 | CCc1cccc2c(OC)c(-c3occ(C)c3C(=O)OC)ccc12 | 2.5 (≈ 7.71 µM) | 1.2 (≈ 3.7 µM) | 1.3 (≈ 4.01 µM) | 2.3 (≈ 7.09 µM) | 1.5 (≈ 4.62 µM) | 2.2 (≈ 6.78 µM) | 1.7 (≈ 5.24 µM) | 1.3 (≈ 4.01 µM) |  | 
18 | CC/C(=C(\c1ccccc1)c1ccc(OCCN(C)C)cc1)c1ccccc1 [TAMOXIFEN] | 5 (≈ 13.5 µM) | 5 (≈ 13.5 µM) |  |  |  |  |  |  |  | 
